Measurements from the supplement of paper PMC10627819.

Experiments:
B. subtilis 168 [1] = assay: fitness (endpoint OD595 vs no drug) (fraction); higher = more growth
Summary of the method: (§1)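 Fitness was defined as the optical density at the transition into stationary phase relative to the robust mean of no-drug control wells. Values were capped at 1. Cultures were started at OD595 0.01 in 384-well plates (30 µl, or 55 µl for S. pneumoniae) in TSB, LB Lennox or CY at 37 °C. OD595 was recorded every 30 min over 14 h, with the first reading subtracted as background.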

S. aureus DSM 20231 [2] = assay: as above
Summary of the method: as §1

S. pneumoniae D39V [3] = assay: as above
Summary of the method: as §1

B. subtilis 168 [4] = assay: Bliss interaction score (quartile over a dose matrix) (fitness difference); higher = more antagonism (negative = synergy)
Summary of the method: (§2)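 Fitness was derived from optical density at entry into stationary phase, divided by the robust mean of the no-drug wells on the same plate. That reading was taken as OD595, and the ratio was capped at 1. Single-drug fitness was inferred from the combination data. The Bliss score, observed fitness minus the expected product of single-drug fitness, was summarised as quartiles over technical, biological and donor/recipient replicates.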

S. aureus DSM 20231 [5] = assay: as above
Summary of the method: as §2

S. aureus Newman = assay: as above
Summary of the method: as §2

S. pneumoniae D39V [6] = assay: as above
Summary of the method: as §2
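Throughout, for Bliss interaction score (quartile over a dose matrix): first quartile when negative (synergy) and third quartile when positive (antagonism).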

CCC[C@@H]1C[C@@H](C(=O)N[C@@H]([C@H]2O[C@H](SC)[C@H](O)[C@@H](O)[C@H]2O)[C@@H](C)O)N(C)C1 [Lincomycin] + Cc1cc(NS(=O)(=O)c2ccc(N)cc2)no1 [Sulfamethoxazol]
fitness
Details | first compound 0.1 µg/mL | first compound 0.2 µg/mL | first compound 0.215 µg/mL | first compound 0.4 µg/mL | first compound 0.43 µg/mL | first compound 0.86 µg/mL
B. subtilis 168 [1], partner 1 µg/mL | 0.831 | 0.862 | – | 0.891 | – | –
B. subtilis 168 [1], partner 2 µg/mL | 0.872 | 0.874 | – | 0.841 | – | –
B. subtilis 168 [1], partner 4 µg/mL | 0.893 | 0.938 | – | 0.895 | – | –
S. aureus DSM 20231 [2], partner 1 µg/mL | 0.82 | 0.616 | – | 0.343 | – | –
S. aureus DSM 20231 [2], partner 2 µg/mL | 0.815 | 0.687 | – | 0.37 | – | –
S. aureus DSM 20231 [2], partner 4 µg/mL | 0.828 | 0.697 | – | 0.304 | – | –
S. pneumoniae D39V [3], partner 1 µg/mL | – | – | 0.746 | – | 0.658 | 0.252
S. pneumoniae D39V [3], partner 2 µg/mL | – | – | 0.762 | – | 0.676 | 0.214
S. pneumoniae D39V [3], partner 4 µg/mL | – | – | 0.786 | – | 0.691 | 0.265

fitness, one replicate
Details | first compound 0.2 µg/mL | first compound 0.4 µg/mL | first compound 0.8 µg/mL | first compound 1.6 µg/mL
B. subtilis 168 [1], partner 0.5 µg/mL | – | 0.903 | 0.806 | 0.862
B. subtilis 168 [1], partner 1 µg/mL | – | – | 0.76 | 0.698
B. subtilis 168 [1], partner 2 µg/mL | – | – | 0.795 | 0.788
S. pneumoniae D39V [3], partner 1 µg/mL | 0.731 | 0.674 | 0.323 | –
S. pneumoniae D39V [3], partner 2 µg/mL | 0.761 | 0.688 | 0.346 | –
S. pneumoniae D39V [3], partner 4 µg/mL | 0.724 | 0.621 | 0.308 | –

Details | Bliss interaction score
B. subtilis 168 [4] | -0.0615
S. aureus DSM 20231 [5] | -0.0797
S. aureus Newman | 0.0671
S. pneumoniae D39V [6] | -0.128

CCC[C@@H]1C[C@@H](C(=O)N[C@@H]([C@H]2O[C@H](SC)[C@H](O)[C@@H](O)[C@H]2O)[C@@H](C)O)N(C)C1 [Lincomycin] + CN(N=O)C(=O)N[C@@H](C=O)[C@@H](O)[C@H](O)[C@H](O)CO [Streptozotocin]
fitness
Details | first compound 0.1 µg/mL | first compound 0.2 µg/mL | first compound 0.215 µg/mL | first compound 0.4 µg/mL | first compound 0.43 µg/mL | first compound 0.86 µg/mL
B. subtilis 168 [1], partner 0.15 µg/mL | 0.957 | 0.99 | – | 0.994 | – | –
B. subtilis 168 [1], partner 0.3 µg/mL | 0.966 | 0.93 | – | 0.997 | – | –
B. subtilis 168 [1], partner 0.6 µg/mL | 0.956 | 0.953 | – | 0.99 | – | –
S. aureus DSM 20231 [2], partner 0.15 µg/mL | 0.804 | 0.635 | – | 0.282 | – | –
S. aureus DSM 20231 [2], partner 0.3 µg/mL | 0.796 | 0.611 | – | 0.267 | – | –
S. aureus DSM 20231 [2], partner 0.6 µg/mL | 0.708 | 0.565 | – | 0.177 | – | –
S. pneumoniae D39V [3], partner 1.2 µg/mL | – | – | 0.752 | – | 0.664 | 0.148
S. pneumoniae D39V [3], partner 2.4 µg/mL | – | – | 0.754 | – | 0.661 | 0.261
S. pneumoniae D39V [3], partner 4.8 µg/mL | – | – | 0.793 | – | 0.705 | 0.237

fitness, S. pneumoniae D39V [3], one replicate
Details | first compound 0.2 µg/mL | first compound 0.4 µg/mL | first compound 0.8 µg/mL
partner 1.2 µg/mL | 0.767 | 0.683 | 0.181
partner 2.4 µg/mL | 0.734 | 0.683 | 0.273
partner 4.8 µg/mL | 0.639 | 0.553 | 0

Details | Bliss interaction score
B. subtilis 168 [4] | -0.0171
S. aureus DSM 20231 [5] | 0.0558
S. aureus Newman | 0.125
S. pneumoniae D39V [6] | -0.138
